The values that follow come from patent US9809623B2, “α4β7 peptide monomer and dimer antagonists” (Protagonist Therapeutics, Inc., priority 2014, dated 2017).

Numbered stars: 1 amine (or outer) side, 2 acyl side, 3 side chain; on linkers, the order of the positions; unused ones are H or OH. Bridge positions count the residues as written; N and C are the ends. Square brackets hold non-standard residues; d marks the D form. Peptide text beside a SMILES is read from it. I, II: the chains in the order shown. X2 = O=C(CCOCCOCCOCCOCCOCCOCCOCCOCCOCCOCCOCCOCCOCCOCCOCCOCCOCCOCCOCCOCCOCCOCCOCCOCCOCCC(=O)[*:2])[*:1]; Phe(4-COOH) = N[C@@H](Cc1ccc(C(=O)O)cc1)C(=O)O; Phe(4-tBu) = CC(C)(C)c1ccc(C[C@H](N)C(=O)O)cc1; Bip = N[C@@H](Cc1ccc(-c2ccccc2)cc1)C(=O)O; 1Nal = N[C@@H](Cc1cccc2ccccc12)C(=O)O; Diglycolyl = O=C(COCC(=O)[*:2])[*:1]; NMeR = CN[C@@H](CCCNC(=N)N)C(=O)O; β3hE = N[C@@H](CCC(=O)O)CC(=O)O; NMeK = CN[C@@H](CCCCN)C(=O)O; Pen = CC(C)(S)[C@H](N)C(=O)O; dNMeK = CN[C@H](CCCCN)C(=O)O

T1 sequence (P13612 34-977 limits assumed): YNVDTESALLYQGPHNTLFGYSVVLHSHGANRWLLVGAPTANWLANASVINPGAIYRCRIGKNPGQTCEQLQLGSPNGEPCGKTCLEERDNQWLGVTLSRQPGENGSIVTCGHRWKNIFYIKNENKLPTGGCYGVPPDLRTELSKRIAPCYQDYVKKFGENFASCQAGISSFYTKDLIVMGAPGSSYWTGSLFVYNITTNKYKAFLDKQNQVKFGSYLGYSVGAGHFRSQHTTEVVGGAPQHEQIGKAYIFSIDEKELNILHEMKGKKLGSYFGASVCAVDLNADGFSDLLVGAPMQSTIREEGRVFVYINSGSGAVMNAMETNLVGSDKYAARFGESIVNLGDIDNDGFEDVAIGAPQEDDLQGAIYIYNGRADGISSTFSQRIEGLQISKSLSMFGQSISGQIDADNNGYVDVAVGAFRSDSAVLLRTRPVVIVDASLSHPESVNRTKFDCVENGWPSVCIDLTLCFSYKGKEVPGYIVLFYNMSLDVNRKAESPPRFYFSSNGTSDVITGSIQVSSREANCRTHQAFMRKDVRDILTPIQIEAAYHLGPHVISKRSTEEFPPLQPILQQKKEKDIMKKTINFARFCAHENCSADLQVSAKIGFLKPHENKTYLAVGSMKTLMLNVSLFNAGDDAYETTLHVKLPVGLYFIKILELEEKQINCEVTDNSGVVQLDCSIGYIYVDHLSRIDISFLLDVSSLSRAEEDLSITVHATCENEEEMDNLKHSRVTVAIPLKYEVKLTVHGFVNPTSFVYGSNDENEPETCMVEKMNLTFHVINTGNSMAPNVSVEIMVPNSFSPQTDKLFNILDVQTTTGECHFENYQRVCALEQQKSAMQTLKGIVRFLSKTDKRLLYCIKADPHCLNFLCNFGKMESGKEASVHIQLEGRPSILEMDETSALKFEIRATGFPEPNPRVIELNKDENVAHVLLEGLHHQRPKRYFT
T1 sequence (P26010 20-723 limits assumed): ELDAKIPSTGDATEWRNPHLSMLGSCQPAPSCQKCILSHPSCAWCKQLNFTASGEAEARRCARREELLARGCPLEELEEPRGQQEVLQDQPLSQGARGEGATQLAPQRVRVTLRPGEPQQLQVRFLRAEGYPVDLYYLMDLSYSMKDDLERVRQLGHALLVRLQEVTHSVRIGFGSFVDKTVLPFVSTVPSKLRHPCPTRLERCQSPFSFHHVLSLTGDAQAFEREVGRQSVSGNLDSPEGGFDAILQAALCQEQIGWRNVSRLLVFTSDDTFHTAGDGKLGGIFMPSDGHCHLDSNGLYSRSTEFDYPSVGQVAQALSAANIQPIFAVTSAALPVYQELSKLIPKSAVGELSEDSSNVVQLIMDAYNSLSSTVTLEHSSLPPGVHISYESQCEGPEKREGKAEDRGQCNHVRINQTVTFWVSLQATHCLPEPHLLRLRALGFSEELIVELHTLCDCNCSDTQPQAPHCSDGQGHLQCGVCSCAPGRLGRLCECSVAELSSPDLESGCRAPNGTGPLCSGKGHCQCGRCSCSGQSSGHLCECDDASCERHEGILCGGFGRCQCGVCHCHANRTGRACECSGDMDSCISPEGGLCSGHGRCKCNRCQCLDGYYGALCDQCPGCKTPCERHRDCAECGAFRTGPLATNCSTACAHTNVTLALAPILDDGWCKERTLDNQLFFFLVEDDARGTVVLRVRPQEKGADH

One assay concerns the target T1, rh integrin α4β7 (Homo sapiens, UniProt P13612+P26010).
T1 construct: purchased R&D Systems 5397-A30
Put plainly: α4β7-MAdCAM Competition ELISA. The format is binding. The settings on record: Table 3-B, Potency (α4β7); range classes; read-out: α4β7 ELISA IC50. A digest of the protocol: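 Recombinant human α4β7 was captured on nickel plates at 800 ng/well. Peptide in 3-fold serial dilution (final top 10 μM) competed with MAdCAM-1 (final 10 nM) for 1 h at room temperature in 50 mM Tris pH 7.6, 150 mM NaCl, 1 mM MnCl2 or MgCl2. Bound MAdCAM-1 was detected with anti-human IgG1-HRP/TMB at A450.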
In general terms: ELISA stands for enzyme-linked immunosorbent assay.
As usually defined, the IC50 is the midpoint of a concentration-inhibition curve. Turning to `CC(=O)N[C@@H]1C(=O)N(C)[C@@H](CCCNC(=N)N)C(=O)N[C@@H](CO)C(=O)N[C@@H](CC(=O)O)C(=O)N[C@@H]([C@@H](C)O)C(=O)N[C@@H](CC(C)C)C(=O)N[C@H](C(=O)N[C@@H](Cc2cccc3ccccc23)C(=O)N[C@@H](CCC(=O)O)C(=O)N(C)[C@H](CCCCNC(=O)COCC(=O)NCCCC[C@H](C(N)=O)N(C)C(=O)[C@H](CCC(=O)O)NC(=O)[C@H](Cc2cccc3ccccc23)NC(=O)[C@H]2NC(=O)[C@H](CC(C)C)NC(=O)[C@H]([C@@H](C)O)NC(=O)[C@H](CC(=O)O)NC(=O)[C@H](CO)NC(=O)[C@H](CCCNC(=N)N)N(C)C(=O)[C@@H](NC(C)=O)C(C)(C)SSC2(C)C)C(N)=O)C(C)(C)SSC1(C)C` [compound 44] (I: Ac-[Pen][NMeR]SDTL[Pen][1Nal]E[dNMeK]-NH2 / II: Ac-[Pen][NMeR]SDTL[Pen][1Nal]E[dNMeK]-NH2; disulfide I:1-I:7, II:1-II:7; linker I:10-II:10 via Diglycolyl), the IC50 was less than 10 nM.

As to `CC(=O)N[C@@H]1C(=O)N(C)[C@@H](CCCNC(=N)N)C(=O)N[C@@H](CO)C(=O)N[C@@H](CC(=O)O)C(=O)N[C@@H]([C@@H](C)O)C(=O)N[C@@H](CC(C)C)C(=O)N[C@H](C(=O)N[C@@H](Cc2c[nH]c3ccccc23)C(=O)N[C@@H](CCC(=O)O)C(=O)N[C@H](CCCCNC(=O)COCC(=O)NCCCC[C@@H](NC(=O)[C@H](CCC(=O)O)NC(=O)[C@H](Cc2c[nH]c3ccccc23)NC(=O)[C@H]2NC(=O)[C@H](CC(C)C)NC(=O)[C@H]([C@@H](C)O)NC(=O)[C@H](CC(=O)O)NC(=O)[C@H](CO)NC(=O)[C@H](CCCNC(=N)N)N(C)C(=O)[C@@H](NC(C)=O)C(C)(C)SSC2(C)C)C(N)=O)C(N)=O)C(C)(C)SSC1(C)C` [compound 67] (I: Ac-[Pen][NMeR]SDTL[Pen]WE[dK]-NH2 / II: Ac-[Pen][NMeR]SDTL[Pen]WE[dK]-NH2; disulfide I:1-I:7, II:1-II:7; linker I:10-II:10 via Diglycolyl), the IC50 was less than 10 nM.

Take `CC(=O)N[C@@H]1C(=O)N(C)[C@@H](CCCNC(=N)N)C(=O)N[C@@H](CO)C(=O)N[C@@H](CC(=O)O)C(=O)N[C@@H]([C@@H](C)O)C(=O)N[C@@H](CC(C)C)C(=O)N[C@H](C(=O)N[C@@H](Cc2c[nH]c3ccccc23)C(=O)N[C@@H](CCC(=O)O)C(=O)N[C@H](CCCCNC(=O)COCC(=O)NCCCC[C@@H](NC(=O)[C@H](CCC(=O)O)NC(=O)[C@H](Cc2c[nH]c3ccccc23)NC(=O)[C@H]2NC(=O)[C@H](CC(C)C)NC(=O)[C@H]([C@@H](C)O)NC(=O)[C@H](CC(=O)O)NC(=O)[C@H](CO)NC(=O)[C@H](CCCNC(=N)N)N(C)C(=O)[C@@H](NC(C)=O)C(C)(C)SSC2(C)C)C(=O)O)C(=O)O)C(C)(C)SSC1(C)C` [compound 78] (I: Ac-[Pen][NMeR]SDTL[Pen]WE[dK]-OH / II: Ac-[Pen][NMeR]SDTL[Pen]WE[dK]-OH; disulfide I:1-I:7, II:1-II:7; linker I:10-II:10 via Diglycolyl): the IC50 was less than 10 nM.

For the molecule `CC(=O)N[C@@H]1C(=O)N(C)[C@@H](CCCNC(=N)N)C(=O)N[C@@H](CO)C(=O)N[C@@H](CC(=O)O)C(=O)N[C@@H]([C@@H](C)O)C(=O)N[C@@H](CC(C)C)C(=O)N[C@H](C(=O)N[C@@H](Cc2ccc(C(=O)O)cc2)C(=O)N[C@@H](CCC(=O)O)CC(=O)N(C)[C@@H](CCCCNC(=O)COCC(=O)NCCCC[C@@H](C(N)=O)N(C)C(=O)C[C@H](CCC(=O)O)NC(=O)[C@H](Cc2ccc(C(=O)O)cc2)NC(=O)[C@H]2NC(=O)[C@H](CC(C)C)NC(=O)[C@H]([C@@H](C)O)NC(=O)[C@H](CC(=O)O)NC(=O)[C@H](CO)NC(=O)[C@H](CCCNC(=N)N)N(C)C(=O)[C@@H](NC(C)=O)C(C)(C)SSC2(C)C)C(N)=O)C(C)(C)SSC1(C)C` [compound 148] (I: Ac-[Pen][NMeR]SDTL[Pen][Phe(4-COOH)][β3hE][NMeK]-NH2 / II: Ac-[Pen][NMeR]SDTL[Pen][Phe(4-COOH)][β3hE][NMeK]-NH2; disulfide I:1-I:7, II:1-II:7; linker I:10-II:10 via Diglycolyl), the IC50 was less than 10 nM.

Turning to `CC(=O)N[C@@H]1C(=O)N(C)[C@@H](CCCNC(=N)N)C(=O)N[C@@H](CO)C(=O)N[C@@H](CC(=O)O)C(=O)N[C@@H]([C@@H](C)O)C(=O)N[C@@H](CC(C)C)C(=O)N[C@H](C(=O)N[C@@H](Cc2ccc(-c3ccccc3)cc2)C(=O)N[C@@H](CCC(=O)O)CC(=O)N(C)[C@@H](CCCCNC(=O)COCC(=O)NCCCC[C@@H](C(N)=O)N(C)C(=O)C[C@H](CCC(=O)O)NC(=O)[C@H](Cc2ccc(-c3ccccc3)cc2)NC(=O)[C@H]2NC(=O)[C@H](CC(C)C)NC(=O)[C@H]([C@@H](C)O)NC(=O)[C@H](CC(=O)O)NC(=O)[C@H](CO)NC(=O)[C@H](CCCNC(=N)N)N(C)C(=O)[C@@H](NC(C)=O)C(C)(C)SSC2(C)C)C(N)=O)C(C)(C)SSC1(C)C` [compound 150] (I: Ac-[Pen][NMeR]SDTL[Pen][Bip][β3hE][NMeK]-NH2 / II: Ac-[Pen][NMeR]SDTL[Pen][Bip][β3hE][NMeK]-NH2; disulfide I:1-I:7, II:1-II:7; linker I:10-II:10 via Diglycolyl), the IC50 is less than 10 nM.

On to `CC(=O)N[C@@H]1C(=O)N(C)[C@@H](CCCNC(=N)N)C(=O)N[C@@H](CO)C(=O)N[C@@H](CC(=O)O)C(=O)N[C@@H]([C@@H](C)O)C(=O)N[C@@H](CC(C)C)C(=O)N[C@H](C(=O)N[C@@H](Cc2ccc(C(C)(C)C)cc2)C(=O)N[C@@H](CCC(=O)O)CC(=O)N[C@H](CCCCN)C(N)=O)C(C)(C)SSC1(C)C` [compound 153] (Ac-[Pen][NMeR]SDTL[Pen][Phe(4-tBu)][β3hE][dK]-NH2; disulfide 1-7), for which the 50% inhibitory concentration (IC50) was in the range of 10 to 25 nM.

The same assay, now with this note: Table 4-B; read-out: ELISA α4β7 IC50.
`CC(=O)N[C@H]1CSSC[C@@H](C(=O)NCC(=O)N[C@@H](CCC(=O)O)C(=O)N[C@@H](CCCCN)C(N)=O)NC(=O)[C@H](CC(C)C)NC(=O)[C@H]([C@@H](C)O)NC(=O)[C@H](CC(=O)O)NC(=O)[C@H](CO)NC(=O)[C@H](CCCNC(=N)N)NC1=O` [compound 196, Ac-C-R-S-D-T-L-C-G-E-K-NH2] (Ac-CRSDTLCGEK-NH2; disulfide 1-7): the IC50 was determined as 87 nM.

Consider `CC(=O)N[C@H]1CSSC[C@@H](C(=O)NCC(=O)N[C@@H](CCC(=O)O)C(=O)N[C@@H](CCCCNC(=O)CCOCCOCCOCCOCCOCCOCCOCCOCCOCCOCCOCCOCCOCCOCCOCCOCCOCCOCCOCCOCCOCCOCCOCCOCCOCCC(=O)NCCCC[C@H](NC(=O)[C@H](CCC(=O)O)NC(=O)CNC(=O)[C@@H]2CSSC[C@H](NC(C)=O)C(=O)N[C@@H](CCCNC(=N)N)C(=O)N[C@@H](CO)C(=O)N[C@@H](CC(=O)O)C(=O)N[C@@H]([C@@H](C)O)C(=O)N[C@@H](CC(C)C)C(=O)N2)C(N)=O)C(N)=O)NC(=O)[C@H](CC(C)C)NC(=O)[C@H]([C@@H](C)O)NC(=O)[C@H](CC(=O)O)NC(=O)[C@H](CO)NC(=O)[C@H](CCCNC(=N)N)NC1=O` [compound 197, (Ac-C-R-S-D-T-L-C-G-E-K-NH2)2-PEG25] (I: Ac-CRSDTLCGEK-NH2 / II: Ac-CRSDTLCGEK-NH2; disulfide I:1-I:7, II:1-II:7; linker I:10-II:10 via X2), for which the IC50 amounted to 36 nM.

Turning to `CC(=O)N[C@H]1CSSC[C@@H](C(=O)NCC(=O)N[C@@H](CCC(=O)O)C(=O)N[C@@H](CCCCN)C(=O)O)NC(=O)[C@H](CC(C)C)NC(=O)[C@H]([C@@H](C)O)NC(=O)[C@H](CC(=O)O)NC(=O)[C@H](CO)NC(=O)[C@H](CCCNC(=N)N)N(C)C1=O` [compound 199, Ac-C-N-Me-R-S-D-T-L-C-G-E-K-OH] (Ac-C[NMeR]SDTLCGEK-OH; disulfide 1-7), the IC50 worked out at 58 nM.

As to `CC(=O)N[C@H]1CSSC[C@@H](C(=O)NCC(=O)N[C@@H](CCC(=O)O)C(=O)N[C@@H](CCCCNC(=O)COCC(=O)NCCCC[C@H](NC(=O)[C@H](CCC(=O)O)NC(=O)CNC(=O)[C@@H]2CSSC[C@H](NC(C)=O)C(=O)N(C)[C@@H](CCCNC(=N)N)C(=O)N[C@@H](CO)C(=O)N[C@@H](CC(=O)O)C(=O)N[C@@H]([C@@H](C)O)C(=O)N[C@@H](CC(C)C)C(=O)N2)C(=O)O)C(=O)O)NC(=O)[C@H](CC(C)C)NC(=O)[C@H]([C@@H](C)O)NC(=O)[C@H](CC(=O)O)NC(=O)[C@H](CO)NC(=O)[C@H](CCCNC(=N)N)N(C)C1=O` [compound 201, (Ac-C-N-Me-R-S-D-T-L-C-G-E-K-OH)2-DIG] (I: Ac-C[NMeR]SDTLCGEK-OH / II: Ac-C[NMeR]SDTLCGEK-OH; disulfide I:1-I:7, II:1-II:7 (inferred); linker I:10-II:10 via Diglycolyl (inferred)), the IC50 amounted to 1 nM.

For the molecule `CC(=O)N[C@@H]1C(=O)N(C)[C@@H](CCCNC(=N)N)C(=O)N[C@@H](CO)C(=O)N[C@@H](CC(=O)O)C(=O)N[C@@H]([C@@H](C)O)C(=O)N[C@@H](CC(C)C)C(=O)N[C@H](C(=O)N[C@@H](Cc2c[nH]c3ccccc23)C(=O)N[C@@H](CCC(=O)O)CC(=O)N[C@H](CCCCNC(=O)COCC(=O)NCCCC[C@@H](NC(=O)C[C@H](CCC(=O)O)NC(=O)[C@H](Cc2c[nH]c3ccccc23)NC(=O)[C@H]2NC(=O)[C@H](CC(C)C)NC(=O)[C@H]([C@@H](C)O)NC(=O)[C@H](CC(=O)O)NC(=O)[C@H](CO)NC(=O)[C@H](CCCNC(=N)N)N(C)C(=O)[C@@H](NC(C)=O)C(C)(C)SSC2(C)C)C(N)=O)C(N)=O)C(C)(C)SSC1(C)C` [compound 213, [Ac-Pen-(N-Me-Arg)-Ser-Asp-Thr-Leu-Pen-Trp-(β-homoGlu)-(D-Lys)-NH2]2-DIG] (I: Ac-[Pen][NMeR]SDTL[Pen]W[β3hE][dK]-NH2 / II: Ac-[Pen][NMeR]SDTL[Pen]W[β3hE][dK]-NH2; disulfide I:1-I:7, II:1-II:7; linker I:10-II:10 via Diglycolyl), the IC50 was found to be 4.7 nM.
